Data reported in patent US10260039B2, “Microgels and microtissues for use in tissue engineering” (Massachusetts Institute of Technology, priority 2011, dated 2019).

Legend:
encapsulated tumor cells = assay: 3D proliferation of encapsulated tumor cells in microtissues (large-particle flow analyzer); type: cell-based
From the text: FIG. 16. Microtissue proliferation modulated by (a) incorporated extracellular matrix molecules, or (b) culture in soluble growth factors.
FIG. 17. Differences in tumor cell responses to small molecules in 2D vs. 3D culture. (a) Comparison of proliferation rates on 2D-microplate and 3D-microtissue formats relative to untreated controls. (b) Growth curve over time of tumor cells in 2D measured by microplate fluorescence, and (c) Growth curve over time of tumor cells in 3D measured by gel dissolution and DNA quantitation.
The in vitro 3D tumor model platform combines the split-injection encapsulation chip described in detail above with a large-particle flow analyzer and sorter (COPAS Biosort by Union Biometrica). Cells are first encapsulated within microtissues (˜5000/min) that can contain tumor cells, stromal cells, and various entrapped ECM. These microtissues are then further enriched using the flow sorter that measures the fluorescence intensity each microtissue, correlating with the density of zs-green tumor cells in each microtissue. (FIG. 15a), and can sort the microtissues (˜25 selected/min) into low, medium, and high homotypic cell density bins (FIG. 15b). […] Selected populations of microtissues are then exposed to stimuli in culture such as growth factors and inhibitors, and their proliferation over days is detected on a population level (FIG. 15b).

[1] = test system: 3D engineered liver tissues; assay: hepatic function of 3D engineered liver tissues (albumin secretion); type: cell-based, human
From the text: FIG. 10. A) Albumin secretion as a measure of hepatic phenotype, elevated in the presence of fibroblasts and RGDS peptide. B) Luminex bead measurements of human drug metabolism enzyme genes, showing upregulation of the genes in 3D as opposed to 2D, in various phases of drug metabolism.
More recently, it has been possible to extend the function of 3D engineered liver tissues even further, by addition of a micropatterning step pre-encapsulation (FIG. 11).

## fibronectin
Encapsulated tumor cells; extracellular matrix protein incorporated in microtissues (FIG. 16)
  3D proliferation (growth) of encapsulated tumor cells: promoted growth

## RGDS: adhesive peptide (SEQ ID NO: 1), acrylate-PEG-RGDS incorporated in hydrogel; ligates α5β1 integrin (not fully specified; acrylate-PEG conjugate in hydrogel)
[1]; 3D culture, ligation of α5β1 integrin via RGDS (FIG. 10A)
  hepatic functions: further improved hepatic functions
[1]; in the presence of fibroblasts and RGDS peptide (FIG. 10A)
  albumin secretion as a measure of hepatic phenotype: elevated

## TGF-β
Encapsulated tumor cells; exogenous growth factor in culture, 3D microtissues (FIG. 16)
  slowing of 3D proliferation of encapsulated tumor cells: ~80%
